{"source": "patent US20020076693A1", "about": "“Novel cell surface receptor for HIV retroviruses, therapeutic and diagnostic uses” (priority 1997, published 2002)", "test_system": "SIVmac", "assay": "SIVmac entry into HeLa cells (β-galactosidase)", "assay_type": "cell-based, SIV", "conditions": "β-galactosidase at 48 hours", "note": "“Also recorded” adds a separate entry of the source.", "data": [{"substance": "5[Kψ(CH2N)PR]-TASP", "values": [{"measurement": "effect on SIVmac entry", "result": "only a slight effect; also recorded: no significant effect"}]}]}
